Laboratory results: ChEMBL document CHEMBL1201862, “PubChem BioAssay data set” (2004)
Activity calls are given as the source filed them.

Key:
[1] = inhibitors of firefly luciferase expression or activity, dose response, H4 neuroglioma cells, luminescence (AID 1990); type: functional, cell-based
[2] = inhibitors of SNCA 5'UTR-driven reporter translation, confirmation, H4 neuroglioma cells, luminescence (AID 1988); type: functional, cell-based
[3] = Luminescence Cell-Based Dose Response HTS to Identify Inhibitors of 5'UTR Stem-Loop Driven Prion Protein mRNA Translation in H4 Neuroglioblastoma Cells. [Related pubchem assays: 1827 (Project Summary), 1813 (Primary HTS)]; type: functional
[4] = biological target: Type-1 angiotensin II receptor (Homo sapiens, UniProt P30556); experiment: AT1 receptor agonists, dose response, selectivity assay for APJ receptor agonist project, cell-based, uHTS hits (AID 488865); type: functional;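 further: beta-arrestin recruitment to AT1 measured by enzyme fragment complementation luminescence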
Sequence of Type-1 angiotensin II receptor (P30556 whole entry, the tested form may be a part): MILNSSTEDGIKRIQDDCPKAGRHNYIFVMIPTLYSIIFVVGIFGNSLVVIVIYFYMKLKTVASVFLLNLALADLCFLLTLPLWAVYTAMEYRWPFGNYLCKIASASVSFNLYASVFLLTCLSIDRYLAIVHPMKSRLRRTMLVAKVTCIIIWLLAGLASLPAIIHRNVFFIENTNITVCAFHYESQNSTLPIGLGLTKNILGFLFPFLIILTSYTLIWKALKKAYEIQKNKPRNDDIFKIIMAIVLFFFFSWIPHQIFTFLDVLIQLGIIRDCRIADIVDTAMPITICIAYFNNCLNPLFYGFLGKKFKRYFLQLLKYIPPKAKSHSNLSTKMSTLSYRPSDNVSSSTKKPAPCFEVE

[5] = biological target: T1, Alkaline phosphatase, tissue-nonspecific isozyme (Homo sapiens, UniProt P05186); experiment: human TNAP enzyme inhibitors, SAR follow-up, biochemical, luminescent, dose response (AID 1056)
T1 sequence (P05186 whole entry): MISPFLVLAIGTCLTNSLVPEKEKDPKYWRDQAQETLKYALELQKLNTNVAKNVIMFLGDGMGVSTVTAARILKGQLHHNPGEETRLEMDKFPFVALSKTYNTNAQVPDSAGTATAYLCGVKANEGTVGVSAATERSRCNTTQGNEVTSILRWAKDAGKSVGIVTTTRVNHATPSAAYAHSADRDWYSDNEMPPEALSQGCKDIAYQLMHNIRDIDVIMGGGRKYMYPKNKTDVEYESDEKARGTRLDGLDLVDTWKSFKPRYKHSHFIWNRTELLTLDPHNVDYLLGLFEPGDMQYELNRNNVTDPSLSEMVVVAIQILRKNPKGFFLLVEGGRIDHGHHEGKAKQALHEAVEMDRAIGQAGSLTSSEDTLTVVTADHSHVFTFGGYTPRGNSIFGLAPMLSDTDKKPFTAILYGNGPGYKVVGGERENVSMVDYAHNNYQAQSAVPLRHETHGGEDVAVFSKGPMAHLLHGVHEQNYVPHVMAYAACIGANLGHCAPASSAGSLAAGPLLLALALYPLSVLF

[6] = biological target: Glyceraldehyde-3-phosphate dehydrogenase (Homo sapiens, UniProt P04406)
Sequence of Glyceraldehyde-3-phosphate dehydrogenase (P04406 whole entry): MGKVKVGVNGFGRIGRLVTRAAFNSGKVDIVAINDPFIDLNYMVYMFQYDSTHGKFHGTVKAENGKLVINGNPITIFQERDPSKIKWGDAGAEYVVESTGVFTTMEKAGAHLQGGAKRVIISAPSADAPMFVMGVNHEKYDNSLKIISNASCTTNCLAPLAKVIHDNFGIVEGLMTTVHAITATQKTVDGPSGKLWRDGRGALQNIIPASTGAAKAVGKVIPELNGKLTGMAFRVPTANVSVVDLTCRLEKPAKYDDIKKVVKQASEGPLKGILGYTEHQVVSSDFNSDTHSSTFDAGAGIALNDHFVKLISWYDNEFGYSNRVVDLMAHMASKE

[7] = biological target: Alkaline phosphatase, placental type (Homo sapiens, UniProt P05187); experiment: PLAP enzyme inhibitors, confirmation, biochemical, luminescence (AID 1512); type: functional
Sequence of Alkaline phosphatase, placental type (P05187 whole entry): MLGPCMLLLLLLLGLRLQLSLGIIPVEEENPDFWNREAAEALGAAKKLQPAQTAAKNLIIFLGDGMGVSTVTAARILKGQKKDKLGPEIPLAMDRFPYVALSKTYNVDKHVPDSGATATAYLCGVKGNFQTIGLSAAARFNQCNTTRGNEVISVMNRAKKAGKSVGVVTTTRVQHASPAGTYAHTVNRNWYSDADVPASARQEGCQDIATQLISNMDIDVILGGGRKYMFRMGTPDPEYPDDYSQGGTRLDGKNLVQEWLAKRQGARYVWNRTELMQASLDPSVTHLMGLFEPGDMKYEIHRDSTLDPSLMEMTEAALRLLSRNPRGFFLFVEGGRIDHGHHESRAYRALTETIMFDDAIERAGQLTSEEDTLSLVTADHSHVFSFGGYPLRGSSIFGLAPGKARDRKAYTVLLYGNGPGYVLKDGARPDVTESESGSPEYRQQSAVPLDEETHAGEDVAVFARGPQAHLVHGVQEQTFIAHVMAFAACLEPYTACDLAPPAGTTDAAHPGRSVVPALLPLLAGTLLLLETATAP

[8] = biological target: X-box-binding protein 1 (Homo sapiens, UniProt P17861); type: functional, Cricetulus griseus;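 further: confirmatory dose-response counter-screen serving a CHOP assay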
Sequence of X-box-binding protein 1 (P17861 whole entry): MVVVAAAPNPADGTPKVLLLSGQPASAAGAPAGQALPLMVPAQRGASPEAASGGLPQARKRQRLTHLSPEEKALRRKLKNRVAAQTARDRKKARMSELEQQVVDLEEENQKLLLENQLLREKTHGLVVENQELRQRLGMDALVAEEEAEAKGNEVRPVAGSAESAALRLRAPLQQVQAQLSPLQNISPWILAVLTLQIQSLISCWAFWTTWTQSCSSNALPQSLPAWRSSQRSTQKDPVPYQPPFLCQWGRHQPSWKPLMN

[9] = biological target: DNA damage-inducible transcript 3 protein (Mus musculus, UniProt P35639); type: functional, Cricetulus griseus
Sequence of DNA damage-inducible transcript 3 protein (P35639 whole entry): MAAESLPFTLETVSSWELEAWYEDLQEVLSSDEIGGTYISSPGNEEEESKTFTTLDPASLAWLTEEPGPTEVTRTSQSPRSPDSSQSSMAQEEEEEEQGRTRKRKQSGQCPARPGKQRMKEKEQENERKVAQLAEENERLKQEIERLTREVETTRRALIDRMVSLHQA

[10] = Luminescence Cell-Based Dose Retest to Confirm Inhibitors of Cancer Stem Cells. [Related pubchem assays (depositor defined):AID2717, AID2721]; type: functional; settings: Homo sapiens
[11] = biological target: 1-acylglycerol-3-phosphate O-acyltransferase ABHD5/Perilipin-5 (Homo sapiens, UniProt Q00G26+Q8WTS1); experiment: Luminescence-based biochemical high throughput dose response assay for inhibitors of the interaction of the lipase co-activator protein, abhydrolase domain containing 5 (ABHD5) with perilipin-5 (MLDP; PLIN5) (2K validation set). [Related pubchem assays (depositor defined):AID493035, AID493241]
Sequence of 1-acylglycerol-3-phosphate O-acyltransferase ABHD5/Perilipin-5 (Q00G26 whole entry, the tested form may be a part): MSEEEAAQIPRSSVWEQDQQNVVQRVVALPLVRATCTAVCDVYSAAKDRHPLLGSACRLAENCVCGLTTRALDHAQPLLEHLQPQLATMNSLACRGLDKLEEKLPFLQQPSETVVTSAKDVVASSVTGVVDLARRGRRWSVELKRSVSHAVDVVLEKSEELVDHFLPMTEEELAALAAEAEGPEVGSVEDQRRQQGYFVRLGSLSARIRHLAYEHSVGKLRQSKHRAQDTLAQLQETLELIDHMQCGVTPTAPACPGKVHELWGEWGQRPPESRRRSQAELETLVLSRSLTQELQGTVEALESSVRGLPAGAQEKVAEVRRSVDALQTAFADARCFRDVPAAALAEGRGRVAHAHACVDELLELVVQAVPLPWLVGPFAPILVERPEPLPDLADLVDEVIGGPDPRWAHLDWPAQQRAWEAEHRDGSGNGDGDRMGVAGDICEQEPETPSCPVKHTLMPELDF
Sequence of 1-acylglycerol-3-phosphate O-acyltransferase ABHD5/Perilipin-5 (Q8WTS1 whole entry, the tested form may be a part): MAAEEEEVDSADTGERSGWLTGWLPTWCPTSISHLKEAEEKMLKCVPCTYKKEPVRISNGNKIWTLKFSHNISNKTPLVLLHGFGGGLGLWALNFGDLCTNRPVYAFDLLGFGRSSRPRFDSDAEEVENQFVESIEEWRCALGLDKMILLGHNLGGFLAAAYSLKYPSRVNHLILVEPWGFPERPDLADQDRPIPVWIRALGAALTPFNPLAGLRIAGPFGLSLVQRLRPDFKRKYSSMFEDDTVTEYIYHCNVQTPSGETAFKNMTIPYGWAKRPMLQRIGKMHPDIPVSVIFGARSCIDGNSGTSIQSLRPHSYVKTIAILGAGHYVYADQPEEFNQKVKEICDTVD

[12] = biological target: Perilipin-1/ABHD5 (Homo sapiens, UniProt O60240+Q8WTS1); experiment: Luminescence-based biochemical high throughput dose response assay for inhibitors of the interaction of the lipase co-activator protein, abhydrolase domain containing 5 (ABHD5) with perilipin-1 (PLIN1) (2K validation set). [Related pubchem assays (depositor defined):AID493027, AID493057]
Sequence of Perilipin-1/ABHD5 (Q8WTS1 whole entry, the tested form may be a part): as above
Sequence of Perilipin-1/ABHD5 (O60240 whole entry, the tested form may be a part): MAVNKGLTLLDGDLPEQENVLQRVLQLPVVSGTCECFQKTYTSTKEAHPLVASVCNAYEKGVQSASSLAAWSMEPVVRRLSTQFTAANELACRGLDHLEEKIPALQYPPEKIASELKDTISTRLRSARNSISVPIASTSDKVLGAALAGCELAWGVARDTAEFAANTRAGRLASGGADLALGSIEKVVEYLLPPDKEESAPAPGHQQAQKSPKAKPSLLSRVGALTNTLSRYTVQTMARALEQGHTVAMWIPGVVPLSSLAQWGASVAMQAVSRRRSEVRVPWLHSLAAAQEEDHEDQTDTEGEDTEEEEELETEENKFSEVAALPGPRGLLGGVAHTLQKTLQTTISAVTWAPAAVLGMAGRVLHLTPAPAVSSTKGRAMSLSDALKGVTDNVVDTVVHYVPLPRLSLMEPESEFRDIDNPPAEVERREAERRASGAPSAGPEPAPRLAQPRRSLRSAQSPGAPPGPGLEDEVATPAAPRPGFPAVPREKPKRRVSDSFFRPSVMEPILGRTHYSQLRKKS

[13] = biological target: T2, Cannabinoid receptor 1 (Homo sapiens, UniProt P21554); experiment: SAR analysis of agonists of the Cannabinoid Receptor 1 using an Image-Based Assay - Set 2. [Related pubchem assays (depositor defined):AID2013, AID2026]; type: functional
T2 sequence (P21554 whole entry): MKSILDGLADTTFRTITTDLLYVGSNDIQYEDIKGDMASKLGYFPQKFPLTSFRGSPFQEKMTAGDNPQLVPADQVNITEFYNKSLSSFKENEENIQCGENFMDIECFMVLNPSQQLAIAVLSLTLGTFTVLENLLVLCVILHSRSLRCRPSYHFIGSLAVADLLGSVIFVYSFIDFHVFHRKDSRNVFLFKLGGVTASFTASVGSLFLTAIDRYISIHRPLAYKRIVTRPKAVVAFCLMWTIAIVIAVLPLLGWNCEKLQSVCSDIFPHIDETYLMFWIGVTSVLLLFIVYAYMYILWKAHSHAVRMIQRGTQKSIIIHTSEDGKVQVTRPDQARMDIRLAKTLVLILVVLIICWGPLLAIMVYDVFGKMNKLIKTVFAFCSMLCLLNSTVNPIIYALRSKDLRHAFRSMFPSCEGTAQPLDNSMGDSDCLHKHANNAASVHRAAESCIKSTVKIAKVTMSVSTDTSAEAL

[14] = biological target: T3, G-protein coupled receptor 35 (Homo sapiens, UniProt Q9HC97); experiment: SAR analysis of Agonists of the GPR35 Receptor using an Image-Based Assay - Set 2. [Related pubchem assays (depositor defined):AID2013, AID2026]; type: functional
T3 sequence (Q9HC97 whole entry): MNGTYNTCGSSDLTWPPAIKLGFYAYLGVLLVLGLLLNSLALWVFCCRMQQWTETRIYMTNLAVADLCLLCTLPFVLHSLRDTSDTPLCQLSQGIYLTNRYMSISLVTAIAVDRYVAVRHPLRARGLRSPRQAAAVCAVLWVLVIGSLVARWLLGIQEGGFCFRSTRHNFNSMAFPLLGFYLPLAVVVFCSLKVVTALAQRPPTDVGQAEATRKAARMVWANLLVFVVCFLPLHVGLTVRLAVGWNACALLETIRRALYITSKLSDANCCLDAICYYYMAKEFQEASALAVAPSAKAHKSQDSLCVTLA

[15] = biological target: T3, G-protein coupled receptor 35; experiment: SAR analysis of Antagonists of the GPR35 Receptor using an Image-Based Assay - Set 3. [Related pubchem assays (depositor defined):AID2013, AID2026]; type: functional
[16] = biological target: T4, Cannabinoid receptor 2 (Homo sapiens, UniProt P34972); experiment: SAR analysis of antagonists of the Cannabinoid Receptor 2 using an Image-Based Assay. [Related pubchem assays (depositor defined):AID2013, AID2026]; type: functional
T4 sequence (P34972 whole entry): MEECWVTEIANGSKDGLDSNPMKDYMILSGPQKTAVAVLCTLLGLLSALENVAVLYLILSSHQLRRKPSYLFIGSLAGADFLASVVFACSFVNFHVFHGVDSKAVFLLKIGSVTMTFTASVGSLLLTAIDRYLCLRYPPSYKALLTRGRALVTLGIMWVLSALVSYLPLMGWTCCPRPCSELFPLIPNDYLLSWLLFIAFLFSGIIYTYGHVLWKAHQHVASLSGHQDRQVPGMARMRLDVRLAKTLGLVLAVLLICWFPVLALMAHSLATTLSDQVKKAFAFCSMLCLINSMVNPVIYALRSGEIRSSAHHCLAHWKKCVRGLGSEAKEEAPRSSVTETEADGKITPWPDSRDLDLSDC

[17] = biological target: T5, G-protein coupled receptor 55 (Homo sapiens, UniProt Q9Y2T6); experiment: GPR55 antagonists blocking LPI-driven arrestin recruitment, primary screen, imaging, U2OS, beta-arrestin-GFP, LPI agonist (AID 2013); type: functional;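 further: antagonist potency measured as reduced agonist-driven arrestin aggregation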
T5 sequence (Q9Y2T6 whole entry): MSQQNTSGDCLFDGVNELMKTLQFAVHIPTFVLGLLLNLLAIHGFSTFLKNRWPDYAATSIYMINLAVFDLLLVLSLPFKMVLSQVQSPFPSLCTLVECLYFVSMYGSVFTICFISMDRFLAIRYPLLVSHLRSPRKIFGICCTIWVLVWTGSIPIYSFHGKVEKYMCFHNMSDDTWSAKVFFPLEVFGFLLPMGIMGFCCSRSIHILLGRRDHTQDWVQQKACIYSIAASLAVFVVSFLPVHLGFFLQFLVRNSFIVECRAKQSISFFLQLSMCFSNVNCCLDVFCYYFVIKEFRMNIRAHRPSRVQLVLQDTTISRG

[18] = biological target: T4, Cannabinoid receptor 2; experiment: SAR analysis of agonists of the Cannabinoid Receptor 2 using an Image-Based Assay. [Related pubchem assays (depositor defined):AID2013, AID2026]; type: functional
[19] = biological target: T2, Cannabinoid receptor 1; experiment: SAR analysis of antagonists of the Cannabinoid Receptor 1 using an Image-Based Assay - Set 2. [Related pubchem assays (depositor defined):AID2013, AID2026]; type: functional
[20] = biological target: T5, G-protein coupled receptor 55; experiment: GPR55 antagonist potency of analogs, SAR follow-up, imaging, U2OS, beta-arrestin-GFP, LPI agonist, set 2 (AID 2820); type: functional
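Wherever AC50 is given: cells exposed to compound for roughly 70 hours or longer before luminescence read.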

For CCc1nnc(NC(=O)CSc2nc3cccnc3n2C2CCCCC2)s1, the EC50 [1] was 23.2 µM (active), the EC50 [2] was 13.3 µM (active) and the EC50 [3] was > 120 µM (not active). The EC50 [4] was > 100 µM (inactive).
In the case of CCN(CC)C(=O)CSc1nnc(-c2ccccc2OC)[nH]1, the IC50 [5] is reported as 17.6 µM (active), the IC50 [6] is reported as > 100 µM (not active) and the IC50 [7] is reported as > 100 µM (inactive).
In the case of Oc1ccccc1-n1c(-c2ccccc2)ccc1-c1ccccc1, the “Absolute IC50 (XBP1)” value [8] is reported as 10 µM, the “Absolute IC50 (CHOP)” value [9] is reported as 10 µM and the AC50 [10] is reported as 4.28 µM (active).
For COc1cccc(/C=C/C(=O)c2c(O)cc(C)oc2=O)c1O, the IC50 [11] was 9.96 µM (active) and the IC50 [12] was 6.79 µM (active).
In the case of Cc1n[nH]c(-c2ccc(O)c(C)c2O)c1Oc1ccccc1, the EC50 [13] is reported as > 32 µM (inactive), the EC50 [14] is reported as > 32 µM (inactive) and the IC50 [15] is reported as > 32 µM (inactive). For the same compound, the IC50 [16] was > 32 µM (inactive), the IC50 [17] was 1.9 µM (active) and the EC50 [18] was > 32 µM (inactive). The IC50 [19] was 11.7 µM (inactive) and the IC50 [20] was 0.854 µM (active).
